Results as given in patent US20240365783A1, “HERBICIDAL MALONAMIDES” (BASF SE, priority 2021, published 2024).

What was measured:
Assay type in all cases: in vivo
[1] = system: Digitaria sanguinalis (DIGSA); assay: greenhouse pre-emergence herbicidal test, DIGSA; settings: pre-emergence method, application rate 0.250 kg/ha, scale from 0 to 100
Source text: (§1) The culture containers used were plastic flowerpots containing loamy sand with approximately 3.0% of humus as the substrate. The seeds of the test plants were sown separately for each species.
(§2) For the pre-emergence treatment, the active ingredients, which had been suspended or emulsified in water, were applied directly after sowing by means of finely distributing nozzles. The containers were irrigated gently to promote germination and growth and subsequently covered with transparent plastic hoods until the test plants had rooted. This cover caused uniform germination of the test plants, unless this had been impaired by the active ingredients.
(§3) Depending on the species, the test plants were kept at 10-25° C. or 20-35° C., respectively.
(§4) The test period extended over 2 to 4 weeks. During this time, the test plants were tended, and their response to the individual treatments was evaluated.
(§5) Evaluation was carried out using a scale from 0 to 100. 100 means no emergence of the test plants, or complete destruction of at least the aerial moieties, and 0 means no damage, or normal course of growth. A good herbicidal activity is given at values of 70 to <90 and a very good herbicidal activity is given at values of 90 to 100.
(§6) The test plants used in the greenhouse experiments were of the following species: […]

[2] = system: Lolium multiflorum (LOLMU); assay: greenhouse pre-emergence herbicidal test, LOLMU; settings: pre-emergence method, application rate 0.250 kg/ha, scale from 0 to 100
Source text: as §1, §2, §3, §4, §5, §6

Avena fatua (AVEFA) = assay: greenhouse post-emergence herbicidal test, AVEFA; settings: post-emergence method, application rate 0.500 kg/ha, scale from 0 to 100
Source text: as §1
(§7) For the post-emergence treatment, the test plants were first grown to a height of 3 to 15 cm, depending on the plant habit, and only then treated with the active ingredients which had been suspended or emulsified in water. For this purpose, the test plants were either sown directly and grown in the same containers, or they were first grown separately as seedlings and transplanted into the test containers a few days prior to treatment.
as §3, §4, §5, §6

[3] = system: Apera spica-venti (APESV); assay: greenhouse pre-emergence herbicidal test, APESV; settings: pre-emergence method, application rate 0.500 kg/ha, scale from 0 to 100
Source text: as §1, §2, §3, §4, §5, §6

[4] = system: Alopercurus myosuroides (ALOMY); assay: greenhouse post-emergence herbicidal test, ALOMY; settings: post-emergence method, application rate 0.500 kg/ha, scale from 0 to 100
Source text: as §1, §7, §3, §4, §5, §6

[5] = system: Abutilon theophrasti (ABUTH); assay: greenhouse pre-emergence herbicidal test, ABUTH; settings: pre-emergence method, scale from 0 to 100
Source text: as §1, §2, §3, §4, §5, §6

Setaria viridis (SETVI) = assay: greenhouse post-emergence herbicidal test, SETVI; settings: post-emergence method, application rate 0.500 kg/ha, scale from 0 to 100
Source text: as §1, §7, §3, §4, §5, §6

[6] = system: Abutilon theophrasti (ABUTH); assay: greenhouse post-emergence herbicidal test, ABUTH; settings: post-emergence method, application rate 0.250 kg/ha, scale from 0 to 100
Source text: as §1, §7, §3, §4, §5, §6

`CC(C)(C(=O)Nc1cccc(OC(F)(F)F)c1)C(=O)N[C@H]1C=C[C@@H](C(=O)O)C1` (relative stereo) [Compound 1.79] was tested, and the “herbicidal activity against DIGSA” value [1] was “good (A good herbicidal activity is given at values of 70 to <90)”.

For `CC(C)(C(=O)Nc1cc(Cl)cc(Cl)c1)C(=O)N[C@H]1C=C[C@@H](C(=O)O)C1` (relative stereo) [Compound 1.80], the “herbicidal activity against LOLMU” value [2] was “good (A good herbicidal activity is given at values of 70 to <90)”.

In the case of `COC(=O)CC(C)NC(=O)C(C)(C)C(=O)Nc1cc(Cl)cc(Cl)c1` (stereo not drawn) [Compound 1.1], the “herbicidal activity against AVEFA” value (Avena fatua (AVEFA)) is reported as “very good (a very good herbicidal activity is given at values of 90 to 100)”, the “herbicidal activity against APESV” value [3] is reported as “very good (a very good herbicidal activity is given at values of 90 to 100)” and the “herbicidal activity against ALOMY” value [4] is reported as “very good (a very good herbicidal activity is given at values of 90 to 100)”. For the same compound, the “herbicidal activity against ABUTH” value ([5]; application rate 0.500 kg/ha) was “good (A good herbicidal activity is given at values of 70 to <90)” and the “herbicidal activity against SETVI” value (Setaria viridis (SETVI)) was “very good (a very good herbicidal activity is given at values of 90 to 100)”.

In the case of `COC(=O)C1C=CC(NC(=O)C(C)(C)C(=O)Nc2cccc(I)c2)C1` (stereo not drawn) [Compound 1.4], the “herbicidal activity against ABUTH” value [6] is reported as “good (A good herbicidal activity is given at values of 70 to <90)”.

With `CCc1cccc(NC(=O)C(C)(C)C(=O)NC(C)CCC(=O)OC)c1` (stereo not drawn) [Compound 1.19] the “herbicidal activity against ABUTH” value ([5]; application rate 0.250 kg/ha) was “good (A good herbicidal activity is given at values of 70 to <90)”.
